Like-named read-outs stand apart in the source and are kept apart here.
Experiments:
sigma-1 receptor = molecular target: T1, sigma-1 receptor (Cavia porcellus, UniProt Q60492); assay: Sigma-1 binding assay ([3H](+)-pentazocine); details: guinea pig brain membranes; for IC50: [3H](+)-pentazocine 2.4 nM, Table I; for inhibition at 0.01 µM: inhibition % at 10 nM, [3H](+)-pentazocine, Table II, read-out: Sigma 1 Inhib. %
T1 construct: their whole brains (without cerebellum) were rapidly removed and homogenized; from tissue; host or cells: guinea pig (male Hartley) whole brain without cerebellum, membrane homogenate
T1 sequence (Q60492 whole entry): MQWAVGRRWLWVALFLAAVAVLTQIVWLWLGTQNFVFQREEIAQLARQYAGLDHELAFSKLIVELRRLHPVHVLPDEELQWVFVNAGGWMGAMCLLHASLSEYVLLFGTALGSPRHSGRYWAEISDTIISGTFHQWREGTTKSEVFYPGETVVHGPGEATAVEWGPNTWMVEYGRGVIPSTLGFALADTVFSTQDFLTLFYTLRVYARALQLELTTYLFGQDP
Experimental: (§1) Sigma-1 and Sigma-2 Binding Assay Methods
(§2) Compounds of the present inventions were tested for selective binding to the sigma-1 receptor and sigma-2 receptor as modified from Chaki et al. Eur. J. Pharmacol. 1994, 251, R1. and Akunne et al., Neuropharmacology, 1997, 36(1), 51.
(§3) Tissue Homogenate Preparation for Sigma-1 Binding Assay and Sigma-2 Binding Assay
(§4) Male Hartley guinea pigs each weighing 300–400 g were used in sigma subtype binding assay. Guinea pigs were killed by decapitation and their whole brains (without cerebellum) were rapidly removed and homogenized in 25 volumes(W/V) of ice-cold 50 mM Tris-HCl buffer(pH 7.4 buffer for sigma-1 binding assay and pH 8.0 buffer for sigma-2 binding assay). The homogenate was centrifuged in 48,000×g for 10 min at 4° C. The supernatant was discarded and the resulting pellets were resuspended in the sane volume of buffer and recentrifuged as described above. The pellets were resuspended and washed twice more in the same manner as described above. The final pellets were resuspended in 10 volumes(W/V) of ice-cold 50 mM Tris-HCl buffer to enable distribution of 2 ml aliquot in microcentrifuge tube, which were used immediately or kept at −80° C. for no more than 1 month before use.
Sigma-1 Binding Assay ([^3H](+)pentazocine)
The sigma-1 selective binding assay was performed using [^3H](+)-pentazocine as the radioligand (2.4 nM final concentration unless otherwise specified) and approximately […] of guinea pig brain membranes in a final volume of […] of 50 mM TRISHCl, pH7.4. Non-specific binding was determined in the presence of […]. For the standard equilibrium assay, the mixtures were incubated for 2 hours at 25°, and rapidly filtered over Whatman GF/C glass fiber filters, followed by three 4.5 ml rinses with ice-cold incubation buffer. The filters were placed in counting vials and 4 ml scintillation solution. The vials were counted in a Beckman scintillation counter.
(§5) IC50 values for sigma-1 or -2 binding assay were calculated using KELL RADLIG v.6.0.5.

sigma-2 receptor = molecular target: T2, sigma-2 receptor (Cavia porcellus, UniProt H0V073); assay: Sigma-2 binding assay ([3H]DTG in the presence of (+)-SKF10047); details: guinea pig brain membranes, read-out: Sigma 2 Inhib. %
T2 construct: their whole brains (without cerebellum) were rapidly removed and homogenized; from tissue; host or cells: guinea pig (male Hartley) whole brain without cerebellum, membrane homogenate
T2 sequence (H0V073 1-176): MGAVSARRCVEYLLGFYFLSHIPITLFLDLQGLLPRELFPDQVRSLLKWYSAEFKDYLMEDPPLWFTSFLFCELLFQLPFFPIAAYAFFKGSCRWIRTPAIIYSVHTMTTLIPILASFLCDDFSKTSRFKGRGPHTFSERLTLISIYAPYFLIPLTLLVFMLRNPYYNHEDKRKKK
Experimental: as §1, §2, §3, §4
Sigma-2 Binding Assay([^3H]DTG)
The Sigma-2 selective binding assay was performed using 3.6 nM[^3H]DTG as the radioligand in the presence of 200 nM (+)-SKF10047 to block the Sigma-1 sites, with […] of guinea pig brain membranes in a total volume of 0.5 ml of 50 mM TRIS-HCl, pH8.0. Non-specific binding was determined in the presence of […]. Incubation condition and other manipulations were as described above for sigma-1 binding assay.
as §5

[1] = Inhibition % at 10 nM, [3H]DTG 3.6 nM, Table I
[2] = inhibition % at 10 nM, [3H]DTG, Table II

SMILES | IC50 (sigma-1 receptor) | inhibition at 0.01 µM (sigma-2 receptor; [1]) | inhibition at 0.01 µM (sigma-1 receptor) | inhibition at 0.01 µM (sigma-2 receptor; [2])
CC(C)(C)c1ccc(CC(N)CN2CCCCCC2)cc1 (centres unmarked) | 2.1 nM | 55.7% |  | 
NC(Cc1ccc(C(F)(F)F)cc1)CN1CCCCCC1 (centres unmarked) | 2 nM | 43.9% |  | 
NC(Cc1ccc(Cl)cc1)CN1CCCCCC1 (centres unmarked) | 13.9 nM | 36.8% |  | 
NC(Cc1ccc(Cl)c(Cl)c1)CN1CCCCCC1 (centres unmarked) | 12.1 nM | 12.5% |  | 
CN(C(=O)Cc1ccc(Cl)c(Cl)c1)C(Cc1ccc(C(C)(C)C)cc1)CN1CCCCCC1 (centres unmarked) | 35.7 nM | 51.4% |  | 
CNC(Cc1ccc(C(C)(C)C)cc1)CN1CCCCCC1 (centres unmarked) | 2.5 nM | 27.4% |  | 
CN(C)C(Cc1ccc(C(C)(C)C)cc1)CN1CCCCCC1 (centres unmarked) | 2.1 nM |  |  | 
CC(C)(C)c1ccc(CC(CN2CCCCCC2)NCc2ccccc2)cc1 (centres unmarked) | 10 nM |  |  | 
O=C(Cc1ccc(Cl)c(Cl)c1)NC(CCN1CCCCCC1)c1ccccc1 (centres unmarked) | 10.8 nM | 27.1% |  | 
Clc1ccc(CCNC(CCN2CCCCCC2)c2ccccc2)cc1Cl (centres unmarked) | 10.2 nM | 70.2% |  | 
NC(Cc1cccc(C(F)(F)F)c1)CN1CCCCCC1 (centres unmarked) |  |  | 42.9% | 31.3%
NC(Cc1c(Cl)cccc1Cl)CN1CCCCCC1 (centres unmarked) |  |  | 33.6% | 21.7%
NC(Cc1ccc(Cl)c(Cl)c1)CN1CCC(Cc2ccccc2)CC1 (centres unmarked) |  |  | 57.3% | 48.3%
O=CNC(Cc1ccc(Cl)c(Cl)c1)CN1CCC(Cc2ccccc2)CC1 (centres unmarked) |  |  | 71.9% | 39.9%
CC(C)(C)c1ccc(CC(N)CN2CCC(Cc3ccccc3)CC2)cc1 (centres unmarked) |  |  | 26.1% | 38.2%
CNC(Cc1ccc(Cl)c(Cl)c1)CN1CCC(Cc2ccccc2)CC1 (centres unmarked) |  |  | 66.1% | 72.7%
CC(C)(C)c1ccc(CC(CN2CCC(Cc3ccccc3)CC2)NC=O)cc1 (centres unmarked) |  |  | 52.7% | 6.1%
NC(Cc1ccc(Cl)cc1Cl)CN1CCC(Cc2ccccc2)CC1 (centres unmarked) |  |  | 56.9% | 48.3%
CNC(Cc1ccc(C(C)(C)C)cc1)CN1CCC(Cc2ccccc2)CC1 (centres unmarked) |  |  | 63.2% | 57.9%
O=CNC(Cc1ccc(Cl)cc1Cl)CN1CCC(Cc2ccccc2)CC1 (centres unmarked) |  |  | 74.5% | 24.3%
CNC(Cc1ccc(Cl)cc1Cl)CN1CCC(Cc2ccccc2)CC1 (centres unmarked) |  |  | 75.6% | 75%
O=CNC(Cc1ccc(Cl)c(Cl)c1)CN1CCCCCC1 (centres unmarked) |  |  | 67.7% | 37.8%
NC(Cc1ccc(Cl)cc1Cl)CN1CCC(C(=O)c2ccccc2)CC1 (centres unmarked) |  |  | 15.3% | 34.7%
NC(Cc1ccc(Cl)cc1)CN1CCC(C(=O)c2ccccc2)CC1 (centres unmarked) |  |  | 38.9% | 50%
N[C@H](Cc1ccccc1)CN1CCC(C(=O)c2ccccc2)CC1 |  |  | 11.2% | 16.9%
NC(Cc1ccccc1)CN1CCC(C(=O)c2ccccc2)CC1 (centres unmarked) |  |  | 33.6% | 34%
N[C@@H](Cc1ccccc1)CN1CCC(C(=O)c2ccccc2)CC1 |  |  | 39.8% | 33.3%

SMILES | IC50 (sigma-1 receptor) | inhibition at 0.01 µM (sigma-2 receptor; [1]) | inhibition at 0.01 µM (sigma-1 receptor) | inhibition at 0.01 µM (sigma-2 receptor; [2])
N[C@@H](Cc1ccccc1)CN1CCC(C(=O)Cc2ccccc2)CC1 |  |  | 43.1% | 21.4%
N[C@@H](Cc1ccccc1)CN1CCC(C(=O)c2ccc(Cl)cc2)CC1 |  |  | 61% | 53.6%
N[C@@H](Cc1ccccc1)CN1CCC(C(=O)c2ccc(F)cc2)CC1 |  |  | 66.7% | 61.1%
N[C@@H](Cc1ccccc1)CN1CCC(C(=O)c2ccc(Cl)c(Cl)c2)CC1 |  |  | 60.8% | 56.6%
NC(Cc1ccc(Cl)cc1)CN1CCC(C(=O)c2ccc(Cl)cc2)CC1 (centres unmarked) |  |  | 23.5% | 34.9%
NC(Cc1ccc(Cl)cc1)CN1CCC(C(=O)c2ccc(F)cc2)CC1 (centres unmarked) |  |  | 31.1% | 48.5%
NC(Cc1ccc(Cl)cc1)CN1CCC(C(=O)c2ccc(Cl)c(Cl)c2)CC1 (centres unmarked) |  |  | 24.7% | 51.7%
NC(Cc1ccc(Cl)c(Cl)c1)CN1CCC(C(=O)c2ccccc2)CC1 (centres unmarked) |  |  | 10.8% | 39.6%
NC(Cc1ccc(Cl)c(Cl)c1)CN1CCC(C(=O)c2ccc(Cl)c(Cl)c2)CC1 (centres unmarked) |  |  | 10.7% | 47.2%
COc1ccc(C(=O)C2CCN(C[C@@H](N)Cc3ccccc3)CC2)cc1 |  |  | 49.1% | 39.8%
COc1ccc(C(=O)C2CCN(CC(N)Cc3ccc(Cl)cc3)CC2)cc1 (centres unmarked) |  |  | 19.5% | 31%
N[C@@H](Cc1ccccc1)CN1CCC(C(=O)c2cccc(Cl)c2)CC1 |  |  | 82.9% | 73%
NC(Cc1ccc(Cl)cc1)CN1CCC(C(=O)c2cccc(Cl)c2)CC1 (centres unmarked) |  |  | 34.5% | 41.6%
CC(C)(C)c1ccc(C(=O)C2CCN(C[C@@H](N)Cc3ccccc3)CC2)cc1 |  |  | 66.2% | 43.1%
CC(C)(C)c1ccc(CC(N)CN2CCC(C(=O)c3ccccc3)CC2)cc1 (centres unmarked) |  |  | 47.4% | 30%
NC(CCN1CCC(Cc2ccccc2)CC1)c1ccccc1 (centres unmarked) |  |  | 25.5% | 39.7%
NC(CCCN1CCCCCC1)c1ccccc1 (centres unmarked) |  |  | 7.1% | 21.6%
NC(CCCCN1CCCCCC1)c1ccccc1 (centres unmarked) |  |  | 9.3% | 32.5%
Clc1ccc(CCNC(CCN2CCC(Cc3ccccc3)CC2)c2ccccc2)cc1Cl (centres unmarked) |  |  | 28.8% | 22.6%
O=CNC(CCN1CCC(Cc2ccccc2)CC1)c1ccccc1 (centres unmarked) |  |  | 28.2% | 26.3%
CNC(CCN1CCC(Cc2ccccc2)CC1)c1ccccc1 (centres unmarked) |  |  | 36.3% | 54.1%
NC(CCN1CCC(C(=O)Cc2ccccc2)CC1)c1ccccc1 (centres unmarked) |  |  | 2.2% | 28.7%
CC(C)(C)c1ccc(CC(N)CCN2CCC(Cc3ccccc3)CC2)cc1 (centres unmarked) |  |  | 3.7% | 24.3%
CNC(CCN1CCC(C(=O)c2ccc(F)cc2)CC1)c1ccccc1 (centres unmarked) |  |  | 25.2% | 50.5%
COc1ccc(C(=O)C2CCN(CCC(N)c3ccccc3)CC2)cc1 (centres unmarked) |  |  | 3.2% | 30.9%
NC(CCN1CCC(C(=O)c2ccc(Cl)cc2)CC1)c1ccccc1 (centres unmarked) |  |  | 7.9% | 43.7%

— patent US7078537B2, “Phenylalkyl diamine and amide analogs” (SK Corporation, priority 2001, dated 2006)
